Test results as given in ChEMBL document CHEMBL5236661, “A new selective inhibitor for IMP-1 metallo-β-lactamase, 3Z,5E-octa-3,5-diene-1,3,4-tricarboxylic acid-3,4-anhydride” (Bioorg Med Chem, 2023).
≈ marks a conversion by molar mass, not a printed value. Calls of active or inactive are those of the source. The rule behind the calls is not given here.

Experiments:
[1] = Inhibition of bacterial Metallo-beta-lactamase IMP-1 using nitrocefin as substrate pre-incubated for 15 mins followed by substrate addition by microplate reader; design: species or system Bacteria
[2] = tested on: Escherichia coli; assay: Antibacterial activity against Escherichia coli KB366 expressing IMP-1 assessed as inhibition of bacterial growth at 100 ug in absence of meropenem incubated overnight by paper disk method; assay type: functional, organism-based; conditions: dose 100.0 µg
[3] = tested on: Escherichia coli; assay: Antibacterial activity against Escherichia coli KB366 expressing IMP-1 assessed as inhibition of bacterial growth at 3 ug in absence of meropenem incubated overnight by paper disk method; assay type: functional, organism-based; conditions: dose 3.0 µg
[4] = tested on: Pseudomonas aeruginosa; assay: Antibacterial activity against Pseudomonas aeruginosa KB367 expressing IMP-1 assessed as inhibition of bacterial growth at 0.1 ug in absence of meropenem incubated overnight by paper disk method; assay type: functional, organism-based; conditions: dose 0.1 µg
[5] = tested on: Pseudomonas aeruginosa; assay: Antibacterial activity against Pseudomonas aeruginosa KB367 expressing IMP-1 assessed as inhibition of bacterial growth at 3 ug in presence of meropenem incubated overnight by paper disk method; assay type: functional; conditions: for inhibition zone (IZ): dose 3.0 µg
[6] = tested on: Pseudomonas aeruginosa; assay: Antibacterial activity against Pseudomonas aeruginosa KB367 expressing IMP-1 assessed as inhibition of bacterial growth at 3 ug in absence of meropenem incubated overnight by paper disk method; assay type: functional, organism-based; conditions: dose 3.0 µg
[7] = tested on: Pseudomonas aeruginosa; assay: Antibacterial activity against Pseudomonas aeruginosa KB367 expressing IMP-1 assessed as inhibition of bacterial growth at 0.3 ug in presence of meropenem incubated overnight by paper disk method; assay type: functional, organism-based; conditions: dose 0.3 µg
[8] = tested on: Escherichia coli; assay: Antibacterial activity against Escherichia coli KB366 expressing IMP-1 assessed as inhibition of bacterial growth at 1 ug in presence of meropenem incubated overnight by paper disk method; assay type: functional; conditions: read-out: IZ
[9] = tested on: Pseudomonas aeruginosa; assay: Antibacterial activity against Pseudomonas aeruginosa KB367 expressing IMP-1 assessed as inhibition of bacterial growth at 0.1 ug in presence of meropenem incubated overnight by paper disk method; assay type: functional, organism-based; conditions: dose 0.1 µg
[10] = tested on: Pseudomonas aeruginosa; assay: Antibacterial activity against Pseudomonas aeruginosa KB367 expressing IMP-1 assessed as inhibition of bacterial growth at 30 ug in presence of meropenem incubated overnight by paper disk method; assay type: functional; conditions: for zone of inhibition at 30 µg/disc: read-out: IZ
[11] = tested on: Escherichia coli; assay: Antibacterial activity against Escherichia coli KB366 expressing IMP-1 assessed as inhibition of bacterial growth at 10 ug in presence of meropenem incubated overnight by paper disk method; assay type: functional; conditions: read-out: IZ
[12] = tested on: Pseudomonas aeruginosa; assay: Antibacterial activity against Pseudomonas aeruginosa KB367 expressing IMP-1 assessed as inhibition of bacterial growth at 10 ug in absence of meropenem incubated overnight by paper disk method; assay type: functional, organism-based; conditions: dose 10.0 µg
[13] = tested on: Pseudomonas aeruginosa; assay: Antibacterial activity against Pseudomonas aeruginosa KB367 expressing IMP-1 assessed as inhibition of bacterial growth at 100 ug in presence of meropenem incubated overnight by paper disk method; assay type: functional; conditions: for zone of inhibition at 100 µg/disc: read-out: IZ
[14] = tested on: Escherichia coli; assay: Antibacterial activity against Escherichia coli KB366 expressing IMP-1 assessed as inhibition of bacterial growth at 30 ug in absence of meropenem incubated overnight by paper disk method; assay type: functional, organism-based; conditions: dose 30.0 µg
[15] = tested on: Pseudomonas aeruginosa; assay: Antibacterial activity against Pseudomonas aeruginosa KB367 expressing IMP-1 assessed as inhibition of bacterial growth at 30 ug in absence of meropenem incubated overnight by paper disk method; assay type: functional, organism-based; conditions: dose 30.0 µg
[16] = tested on: Escherichia coli; assay: Antibacterial activity against Escherichia coli KB366 expressing IMP-1 assessed as inhibition of bacterial growth at 1 ug in absence of meropenem incubated overnight by paper disk method; assay type: functional, organism-based; conditions: dose 1.0 µg
[17] = tested on: Pseudomonas aeruginosa; assay: Antibacterial activity against Pseudomonas aeruginosa KB367 expressing IMP-1 assessed as inhibition of bacterial growth at 1 ug in presence of meropenem incubated overnight by paper disk method; assay type: functional; conditions: dose 1.0 µg
[18] = tested on: Escherichia coli; assay: Antibacterial activity against Escherichia coli KB366 expressing IMP-1 assessed as inhibition of bacterial growth at 3 ug in presence of meropenem incubated overnight by paper disk method; assay type: functional; conditions: read-out: IZ
[19] = tested on: Escherichia coli; assay: Antibacterial activity against Escherichia coli KB366 expressing IMP-1 assessed as inhibition of bacterial growth at 0.3 ug in presence of meropenem incubated overnight by paper disk method; assay type: functional; conditions: for zone of inhibition at 0.3 µg/disc: read-out: IZ
[20] = tested on: Escherichia coli; assay: Antibacterial activity against Escherichia coli KB366 expressing IMP-1 assessed as inhibition of bacterial growth at 0.3 ug in absence of meropenem incubated overnight by paper disk method; assay type: functional, organism-based; conditions: dose 0.3 µg
[21] = tested on: Pseudomonas aeruginosa; assay: Antibacterial activity against Pseudomonas aeruginosa KB367 expressing IMP-1 assessed as inhibition of bacterial growth at 100 ug in absence of meropenem incubated overnight by paper disk method; assay type: functional, organism-based; conditions: dose 100.0 µg
[22] = tested on: Escherichia coli; assay: Antibacterial activity against Escherichia coli KB366 expressing IMP-1 assessed as inhibition of bacterial growth at 100 ug in presence of meropenem incubated overnight by paper disk method; assay type: functional; conditions: read-out: IZ
[23] = tested on: Escherichia coli; assay: Antibacterial activity against Escherichia coli KB366 expressing IMP-1 assessed as inhibition of bacterial growth at 30 ug in presence of meropenem incubated overnight by paper disk method; assay type: functional; conditions: read-out: IZ
[24] = tested on: Pseudomonas aeruginosa; assay: Antibacterial activity against Pseudomonas aeruginosa KB367 expressing IMP-1 assessed as inhibition of bacterial growth at 10 ug in presence of meropenem incubated overnight by paper disk method; assay type: functional; conditions: for zone of inhibition at 10 µg/disc: read-out: IZ
[25] = tested on: Pseudomonas aeruginosa; assay: Antibacterial activity against Pseudomonas aeruginosa KB367 expressing IMP-1 assessed as inhibition of bacterial growth at 1 ug in absence of meropenem incubated overnight by paper disk method; assay type: functional, organism-based; conditions: dose 1.0 µg
[26] = tested on: Escherichia coli; assay: Antibacterial activity against Escherichia coli KB366 expressing IMP-1 assessed as inhibition of bacterial growth at 10 ug in absence of meropenem incubated overnight by paper disk method; assay type: functional, organism-based; conditions: dose 10.0 µg
[27] = tested on: Pseudomonas aeruginosa; assay: Antibacterial activity against Pseudomonas aeruginosa KB367 expressing IMP-1 assessed as inhibition of bacterial growth at 0.3 ug in absence of meropenem incubated overnight by paper disk method; assay type: functional, organism-based; conditions: dose 0.3 µg
[28] = tested on: Escherichia coli; assay: Antibacterial activity against Escherichia coli KB366 expressing IMP-1 assessed as inhibition of bacterial growth at 0.1 ug in absence of meropenem incubated overnight by paper disk method; assay type: functional, organism-based; conditions: dose 0.1 µg
[29] = tested on: Escherichia coli; assay: Antibacterial activity against Escherichia coli KB366 expressing IMP-1 assessed as inhibition of bacterial growth at 0.1 ug in presence of meropenem incubated overnight by paper disk method; assay type: functional; conditions: dose 0.1 µg
[30] = tested on: Escherichia coli; assay: Antibacterial activity against Escherichia coli KB366 expressing IMP-1 assessed as inhibition of bacterial growth at 0.01 ug in absence of meropenem incubated overnight by paper disk method; assay type: functional, organism-based; conditions: dose 0.01 µg
[31] = tested on: Escherichia coli; assay: Antibacterial activity against Escherichia coli KB366 expressing IMP-1 assessed as inhibition of bacterial growth at 0.03 ug in absence of meropenem incubated overnight by paper disk method; assay type: functional, organism-based; conditions: dose 0.03 µg
[32] = tested on: Escherichia coli; assay: Antibacterial activity against Escherichia coli KB366 expressing IMP-1 assessed as inhibition of bacterial growth at 0.01 ug in presence of meropenem incubated overnight by paper disk method; assay type: functional; conditions: dose 0.01 µg
[33] = tested on: Escherichia coli; assay: Antibacterial activity against Escherichia coli KB366 expressing IMP-1 assessed as inhibition of bacterial growth at 0.03 ug in presence of meropenem incubated overnight by paper disk method; assay type: functional; conditions: dose 0.03 µg

## CC/C=C/C1=C(CCCOS(C)(=O)=O)C(=O)OC1=O
[1]
  IC50: > 10 µg/mL

## CC/C=C/C1=C(c2ccc(OCOC)c(OCOC)c2)C(=O)OC1=O
[2]
  inhibition zone (IZ): inactive
[3]
  inhibition zone (IZ): inactive
[4]
  inhibition zone (IZ): inactive
[5]
  inhibition zone (IZ): inactive
[6]
  inhibition zone (IZ): inactive
[7]
  inhibition zone (IZ): inactive
[8]
  zone of inhibition at 1 µg/disc: 14 mm
[9]
  inhibition zone (IZ): inactive
[10]; dose 30.0 µg
  inhibition zone (IZ): inactive
[11]
  zone of inhibition at 10 µg/disc: 20 mm
[12]
  inhibition zone (IZ): inactive
[13]; dose 100.0 µg
  inhibition zone (IZ): inactive
[14]
  inhibition zone (IZ): inactive
[15]
  inhibition zone (IZ): inactive
[16]
  inhibition zone (IZ): inactive
[17]
  inhibition zone (IZ): inactive
[18]
  zone of inhibition at 3 µg/disc: 16 mm
[1]
  IC50: 9.49 µg/mL (≈ 27.2 µM)
[19]
  zone of inhibition at 0.3 µg/disc: 11 mm
[20]
  inhibition zone (IZ): inactive
[21]
  inhibition zone (IZ): inactive
[22]
  zone of inhibition at 100 µg/disc: 27 mm
[23]
  zone of inhibition at 30 µg/disc: 23 mm
[24]; dose 10.0 µg
  inhibition zone (IZ): inactive
[25]
  inhibition zone (IZ): inactive
[26]
  inhibition zone (IZ): inactive
[27]
  inhibition zone (IZ): inactive

## CC/C=C/C1=C(CCCOCc2ccccc2)C(=O)OC1=O
[1]
  IC50: > 10 µg/mL

## CC/C=C/C1=C(CCC(=O)OC)C(=O)OC1=O
[2]
  inhibition zone (IZ): inactive
[3]
  inhibition zone (IZ): inactive
[4]
  inhibition zone (IZ): inactive
[5]; read-out: IZ
  zone of inhibition at 3 µg/disc: 9 mm
[6]
  inhibition zone (IZ): inactive
[7]
  inhibition zone (IZ): inactive
[8]
  zone of inhibition at 1 µg/disc: 19 mm
[9]
  inhibition zone (IZ): inactive
[10]
  zone of inhibition at 30 µg/disc: 16 mm
[11]
  zone of inhibition at 10 µg/disc: 26 mm
[12]
  inhibition zone (IZ): inactive
[13]
  zone of inhibition at 100 µg/disc: 20 mm
[14]
  inhibition zone (IZ): inactive
[15]
  inhibition zone (IZ): inactive
[28]
  inhibition zone (IZ): inactive
[16]
  inhibition zone (IZ): inactive
[17]
  inhibition zone (IZ): inactive
[18]
  zone of inhibition at 3 µg/disc: 23 mm
[1]
  IC50: 4.3 µg/mL (≈ 18 µM)
[19]; dose 0.3 µg
  inhibition zone (IZ): inactive
[29]
  inhibition zone (IZ): inactive
[20]
  inhibition zone (IZ): inactive
[21]
  inhibition zone (IZ): inactive
[22]
  zone of inhibition at 100 µg/disc: 33 mm
[23]
  zone of inhibition at 30 µg/disc: 28 mm
[24]
  zone of inhibition at 10 µg/disc: 11 mm
[25]
  inhibition zone (IZ): inactive
[26]
  inhibition zone (IZ): inactive
[27]
  inhibition zone (IZ): inactive

## CCCCC1=C(c2ccc(O)c(O)c2)C(=O)OC1=O
[2]
  inhibition zone (IZ): inactive
[30]
  inhibition zone (IZ): inactive
[3]
  inhibition zone (IZ): inactive
[4]
  inhibition zone (IZ): inactive
[5]
  inhibition zone (IZ): inactive
[6]
  inhibition zone (IZ): inactive
[7]
  inhibition zone (IZ): inactive
[8]
  zone of inhibition at 1 µg/disc: 17 mm
[31]
  inhibition zone (IZ): inactive
[9]
  inhibition zone (IZ): inactive
[10]
  zone of inhibition at 30 µg/disc: 14 mm
[11]
  zone of inhibition at 10 µg/disc: 22 mm
[12]
  inhibition zone (IZ): inactive
[13]
  zone of inhibition at 100 µg/disc: 19 mm
[14]
  inhibition zone (IZ): inactive
[15]
  inhibition zone (IZ): inactive
[28]
  inhibition zone (IZ): inactive
[16]
  inhibition zone (IZ): inactive
[17]
  inhibition zone (IZ): inactive
[18]
  zone of inhibition at 3 µg/disc: 20 mm
[1]
  IC50: 1.46 µg/mL (≈ 5.57 µM)
[19]
  zone of inhibition at 0.3 µg/disc: 13 mm
[32]
  inhibition zone (IZ): inactive
[29]
  inhibition zone (IZ): inactive
[20]
  inhibition zone (IZ): inactive
[21]
  inhibition zone (IZ): inactive
[22]
  zone of inhibition at 100 µg/disc: 29 mm
[33]
  inhibition zone (IZ): inactive
[23]
  zone of inhibition at 30 µg/disc: 25 mm
[24]
  zone of inhibition at 10 µg/disc: 9 mm
[25]
  inhibition zone (IZ): inactive
[26]
  inhibition zone (IZ): inactive
[27]
  inhibition zone (IZ): inactive
